This passage reports EC50 and IC50 results from publication PMC4980693, “TRPV4 regulates calcium homeostasis, cytoskeletal remodeling, conventional outflow and intraocular pressure in the mammalian eye” (Scientific Reports, 2016).

Assay [1] addresses T1, TRPV4 (transient receptor potential vanilloid 4) (Homo sapiens, UniProt Q9HBA0). The assay can be described thus: whole-cell patch clamp and Fura-2 Ca2+ imaging in human trabecular meshwork cells (endogenous channel), agonist. Type of assay: cell-based.
For assay [2], the target named is T1, TRPV4 (transient receptor potential vanilloid 4). The assay can be described thus: inhibition of GSK101 ([…])-induced Ca2+ signals in human trabecular meshwork cells (Fura-2); putative prodrug analog of HC-067047. The format is cell-based.

T1 sequence (Q9HBA0 whole entry): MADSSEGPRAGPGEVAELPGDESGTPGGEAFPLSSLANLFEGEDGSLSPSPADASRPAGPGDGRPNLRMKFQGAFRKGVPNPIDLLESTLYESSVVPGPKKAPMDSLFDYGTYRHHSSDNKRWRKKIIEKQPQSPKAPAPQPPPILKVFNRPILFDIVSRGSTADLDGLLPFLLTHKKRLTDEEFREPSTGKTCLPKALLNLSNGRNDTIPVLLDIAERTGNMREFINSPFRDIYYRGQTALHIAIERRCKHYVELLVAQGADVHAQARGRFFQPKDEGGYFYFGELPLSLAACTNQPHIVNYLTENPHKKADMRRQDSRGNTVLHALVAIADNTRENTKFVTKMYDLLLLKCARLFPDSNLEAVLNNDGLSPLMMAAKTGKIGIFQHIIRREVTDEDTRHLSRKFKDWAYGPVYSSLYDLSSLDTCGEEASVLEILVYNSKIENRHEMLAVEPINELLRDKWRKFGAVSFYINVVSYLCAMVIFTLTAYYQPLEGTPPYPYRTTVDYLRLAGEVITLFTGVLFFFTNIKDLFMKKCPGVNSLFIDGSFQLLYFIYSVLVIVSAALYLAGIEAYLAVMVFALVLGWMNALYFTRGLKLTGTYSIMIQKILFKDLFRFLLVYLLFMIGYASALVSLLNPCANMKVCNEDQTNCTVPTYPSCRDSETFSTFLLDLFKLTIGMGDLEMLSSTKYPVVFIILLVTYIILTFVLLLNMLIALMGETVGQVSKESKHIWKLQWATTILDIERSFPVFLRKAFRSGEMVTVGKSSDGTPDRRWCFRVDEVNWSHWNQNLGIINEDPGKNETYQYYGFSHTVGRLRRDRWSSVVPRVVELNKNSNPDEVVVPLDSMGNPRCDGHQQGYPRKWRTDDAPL

Regarding `CC(C)C[C@H](NC(=O)c1cc2ccccc2s1)C(=O)N1CCN(C(=O)[C@H](CO)NS(=O)(=O)c2ccc(Cl)cc2Cl)CC1` [GSK101, GSK1016790A], the EC50 in assay [1] is about 25 nM.

Consider `Cc1c(C(=O)Nc2cccc(C(=O)OC(C)C)c2)cc(-c2ccccc2)n1CCCN1CCOCC1` [YX-02, isopropyl 3-(2-methyl-1-(3-morpholinopropyl)-5-phenyl-1H-pyrrole-3-carboxamido)benzoate], for which, in assay [2], the IC50 was determined as 740 ± 40 nM.
